This passage reports IC50 and viability, T/C results from PubChem BioAssay AID1845196 (Molecular Pharmacology Branch, DTP, NCI, 2023).

For orientation: IC50 means the concentration that gives 50% inhibition. One may read the viability, T/C as the result in the treated group divided by that in the control group, in per cent.

The test system of this experiment is 292921-168-R tumor spheroid viability. Put plainly: Anticancer human tumor 292921-168-R patient-derived pancreatic carcinoma cell line growth inhibition. As to conditions: spheroids with HUVEC and MSC; for viability, T/C: stronger effect = lower value. An outline of the steps: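 Complex tumor spheroids combined malignant cells with endothelial cells and mesenchymal stem cells. DNA-damaging drugs and DNA repair inhibitors were tested alone and in combination, at half-log dilutions down from clinical Cmax (top 10 microM if Cmax unknown), 0.25% DMSO final.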

The mark [1] stands for this setting: curve of first compound, second compound 0.003 µM.

Several values for one entry are separate records, joined by “and”; a condition that tells them apart may be missing. Equal entries are not always repeated.
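Also: spheroids exposed to compounds for 7 days.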

Regarding `CC(C)n1c(=O)n(C)c2cnc3cc(F)c(-c4ccc(OCCCN5CCCCC5)nc4)cc3c21` + CC[C@@]1(O)C(=O)OCc2c1cc1n(c2=O)Cc2cc3c(CN(C)C)c(O)ccc3nc2-1, the IC50 runs as follows: under setting [1], less than 31.6 nM; (curve of first compound, second compound 0.00949 µM) less than 31.6 nM; (curve of first compound, second compound 0.03 µM) less than 31.6 nM; (curve of first compound, second compound 0.0949 µM) less than 31.6 nM; (curve of first compound, second compound 0.3 µM) less than 31.6 nM. Moreover, the viability, T/C runs as follows: (second compound 0.003 µM, first compound 0.0316 µM) 45.7%; (second compound 0.003 µM, first compound 0.1 µM) 42.4%; (second compound 0.003 µM, first compound 0.316 µM) 44.9%; (second compound 0.003 µM, first compound 1 µM) 42.3%; (second compound 0.003 µM, first compound 3.16 µM) 41.4%; (second compound 0.003 µM, first compound 10 µM) 20.4%. Also, the viability, T/C by setting is: (second compound 0.00949 µM, first compound 0.0316 µM) 25.4%; (second compound 0.00949 µM, first compound 0.1 µM) 23.7%; (second compound 0.00949 µM, first compound 0.316 µM) 22.3%; (second compound 0.00949 µM, first compound 1 µM) 25.2%; (second compound 0.00949 µM, first compound 3.16 µM) 24.4%; (second compound 0.00949 µM, first compound 10 µM) 18.7%. The viability, T/C (second compound 0.03 µM, first compound 0.0316 µM) is 20.2%; the viability, T/C (second compound 0.03 µM, first compound 0.1 µM) is 22.4%; the viability, T/C (second compound 0.03 µM, first compound 0.316 µM) was 20.4%; the viability, T/C (second compound 0.03 µM, first compound 1 µM) is 20.4%; the viability, T/C (second compound 0.03 µM, first compound 3.16 µM) was 23.2%; the viability, T/C (second compound 0.03 µM, first compound 10 µM) was 16.7%. The viability, T/C was 13.2% (second compound 0.0949 µM, first compound 0.0316 µM); 14.7% (second compound 0.0949 µM, first compound 0.1 µM); 13.7% (second compound 0.0949 µM, first compound 0.316 µM); 14.8% (second compound 0.0949 µM, first compound 1 µM); 16.8% (second compound 0.0949 µM, first compound 3.16 µM); 14.8% (second compound 0.0949 µM, first compound 10 µM). The viability, T/C is, setting by setting: (second compound 0.3 µM, first compound 0.0316 µM) 4.72%; (second compound 0.3 µM, first compound 0.1 µM) 4.71%; (second compound 0.3 µM, first compound 0.316 µM) 5.4%; (second compound 0.3 µM, first compound 1 µM) 6.25%; (second compound 0.3 µM, first compound 3.16 µM) 8.92%; (second compound 0.3 µM, first compound 10 µM) 10.4%.

For `CNCc1ccc(-c2cc(-c3nc(-c4ccc(S(=O)(=O)C(C)C)cc4)cnc3N)on2)cc1` + COc1cc2c(cc1O)CCNC21CSC2c3c(OC(C)=O)c(C)c4c(c3C(COC1=O)N1C(O)C3Cc5cc(C)c(OC)c(O)c5C(C21)N3C)OCO4, the IC50 is 193 nM (curve of first compound, second compound 30 pM); 147 nM (curve of first compound, second compound 94.9 pM); less than 9.49 nM (curve of first compound, second compound 0.0003 µM); less than 9.49 nM (curve of first compound, second compound 0.000949 µM); less than 9.49 nM under setting [1]. The viability, T/C is 96.9% (second compound 30 pM, first compound 0.00949 µM); 104% (second compound 30 pM, first compound 0.03 µM); 71.5% (second compound 30 pM, first compound 0.0949 µM); 36.8% (second compound 30 pM, first compound 0.3 µM); 15.8% (second compound 30 pM, first compound 0.949 µM); 13.2% (second compound 30 pM, first compound 3 µM). Besides, the viability, T/C is 100% (second compound 94.9 pM, first compound 0.00949 µM); 96.4% (second compound 94.9 pM, first compound 0.03 µM); 69% (second compound 94.9 pM, first compound 0.0949 µM); 19% (second compound 94.9 pM, first compound 0.3 µM); 13.2% (second compound 94.9 pM, first compound 0.949 µM); 8.91% (second compound 94.9 pM, first compound 3 µM). Further, the viability, T/C (second compound 0.0003 µM, first compound 0.00949 µM) was 45.9%; the viability, T/C (second compound 0.0003 µM, first compound 0.03 µM) is 50.7%; the viability, T/C (second compound 0.0003 µM, first compound 0.0949 µM) is 28.6%; the viability, T/C (second compound 0.0003 µM, first compound 0.3 µM) was 14.5%; the viability, T/C (second compound 0.0003 µM, first compound 0.949 µM) was 10%; the viability, T/C (second compound 0.0003 µM, first compound 3 µM) was 8.68%. The viability, T/C reads like this: (second compound 0.000949 µM, first compound 0.00949 µM) 2.7%; (second compound 0.000949 µM, first compound 0.03 µM) 5.05%; (second compound 0.000949 µM, first compound 0.0949 µM) 4.26%; (second compound 0.000949 µM, first compound 0.3 µM) 4.15%; (second compound 0.000949 µM, first compound 0.949 µM) 3.65%; (second compound 0.000949 µM, first compound 3 µM) 0.18%. Besides, the viability, T/C reads like this: (second compound 0.003 µM, first compound 0.00949 µM) 0.18%; (second compound 0.003 µM, first compound 0.03 µM) 0.17%; (second compound 0.003 µM, first compound 0.0949 µM) 0.15%; (second compound 0.003 µM, first compound 0.3 µM) 0.2%; (second compound 0.003 µM, first compound 0.949 µM) 0.24%; (second compound 0.003 µM, first compound 3 µM) 0.16%.

For the molecule `CNCc1ccc(-c2cc(-c3nc(-c4ccc(S(=O)(=O)C(C)C)cc4)cnc3N)on2)cc1`, the viability, T/C is 101% and 106% and 104% (compound 0.00949 µM); 101% and 94.1% and 95.1% (compound 0.03 µM); 79.2% and 80% and 91.3% (compound 0.0949 µM); 49.7% and 37.8% and 38.7% (compound 0.3 µM); 26.5% and 25.3% and 20.8% (compound 0.949 µM); 11.9% (2×) and 13.2% (compound 3 µM). Further, the IC50 (curve of compound) is 307 nM and 226 nM and 236 nM.

For `Cn1nnc2c(C(N)=O)ncn2c1=O`, the viability, T/C was 94.3% [middle of 10 runs] (compound 1 µM); 95.5% [middle of 10 runs] (compound 3.16 µM); 94.8% [middle of 10 runs] (compound 10 µM); 90.8% [middle of 10 runs] (compound 31.6 µM); 85.8% [middle of 10 runs] (compound 100 µM). For the same molecule, the IC50 (compound alone, run of 10/17/2019) is more than 100000 nM.
